Measured values as given in US9730914B2, “3,5-diaminopyrazole kinase inhibitors” (Axikin Pharmaceuticals, Inc., priority 2014, dated 2017).

Experiments:
[1] = biological target: T1, JAK3 (Homo sapiens, UniProt P52333); test: Kinase competition binding assay (Kd, qPCR readout), JAK3; details: for Kd: Kd class, JAK3, read-out: JAK3 Activity Level; for RCK:JAK3 selectivity ratio: ratio Kd (JAK3): Kd (RCK)
T1 construct: made in house; host or cells: E. coli BL21-derived host (T7 phage) or HEK-293
Method in brief: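 Kd values were derived from 11-point, 3-fold compound series at 1% DMSO, usually topping at 30,000 nM, with retesting from a lower top when under 0.5 nM. It competed with bead-immobilized ligand for 1 h at room temperature, and the captured kinase was measured by qPCR after elution.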

[2] = biological target: T2, kinase domain protein of RC kinase (RCK) (Homo sapiens, UniProt Q56UN5); test: Kinase competition binding assay (Kd, qPCR readout), RC kinase; details: Kd class, read-out: RCK Activity Level
T2 construct: made in house; host or cells: E. coli BL21-derived host (T7 phage) or HEK-293
T2 sequence (Q56UN5 1061-1324 limits assumed): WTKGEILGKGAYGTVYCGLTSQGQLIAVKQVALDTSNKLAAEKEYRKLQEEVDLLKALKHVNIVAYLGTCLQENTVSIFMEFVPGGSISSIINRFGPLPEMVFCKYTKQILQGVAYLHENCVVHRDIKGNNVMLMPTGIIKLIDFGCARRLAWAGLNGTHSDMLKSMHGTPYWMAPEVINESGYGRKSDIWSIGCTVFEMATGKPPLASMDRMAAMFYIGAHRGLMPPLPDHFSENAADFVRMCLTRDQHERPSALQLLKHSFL
Method in brief: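 Competition binding: DNA-tagged kinase (T7 phage or HEK-293-expressed) plus immobilized biotinylated ligand beads and compound, 1 h at room temperature, 1% DMSO. Bead-bound kinase eluted and quantified by qPCR. Kd from 11-point 3-fold dilution, top 30,000 nM, retested lower if below 0.5 nM.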

[3] = biological target: T3, JAK2 (Homo sapiens, UniProt O60674); test: Kinase competition binding assay (Kd, qPCR readout), JAK2; details: for Kd: Kd class, JAK2, read-out: JAK2 Activity Level; for RCK:JAK2 selectivity ratio: ratio Kd (JAK2): Kd(RCK)
T3 construct: made in house; host or cells: E. coli BL21-derived host (T7 phage) or HEK-293
T3 sequence (O60674 840-1132 limits assumed): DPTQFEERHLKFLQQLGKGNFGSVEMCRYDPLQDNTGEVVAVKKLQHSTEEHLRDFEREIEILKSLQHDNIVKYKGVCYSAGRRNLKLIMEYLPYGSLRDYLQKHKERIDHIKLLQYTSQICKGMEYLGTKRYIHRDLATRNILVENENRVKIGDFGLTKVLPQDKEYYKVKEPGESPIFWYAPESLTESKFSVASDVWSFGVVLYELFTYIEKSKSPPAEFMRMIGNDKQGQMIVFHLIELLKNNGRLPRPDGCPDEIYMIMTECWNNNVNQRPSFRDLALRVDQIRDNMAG
Method in brief: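 Competition binding: DNA-tagged kinase (T7 phage or HEK-293-expressed), immobilized biotinylated ligand beads and compound in SeaBlock/PBS/Tween/DTT buffer, 1 hour at room temperature; bound kinase eluted and quantified by qPCR. Kd from 11-point 3-fold dilution, top 30,000 nM typically, final DMSO 1%.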

T1 sequence (P52333 811-1124 limits assumed): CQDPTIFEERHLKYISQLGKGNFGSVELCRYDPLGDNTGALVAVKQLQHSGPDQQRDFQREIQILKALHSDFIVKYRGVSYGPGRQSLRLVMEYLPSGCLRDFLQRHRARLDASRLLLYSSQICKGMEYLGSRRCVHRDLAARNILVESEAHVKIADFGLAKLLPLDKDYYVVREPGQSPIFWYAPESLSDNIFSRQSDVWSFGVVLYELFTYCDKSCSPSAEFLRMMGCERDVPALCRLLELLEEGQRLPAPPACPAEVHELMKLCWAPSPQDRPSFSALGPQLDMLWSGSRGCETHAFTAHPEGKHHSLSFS

Compound | Kd [1] [nM] | RCK:JAK3 selectivity ratio [1] | Kd [2] [nM] | Kd [3] [nM] | RCK:JAK2 selectivity ratio [3]
NC(=O)c1c(Nc2ccc(N3CCC(F)CC3)cc2)n[nH]c1NCc1ccc(O)cc1 [reference compound] | < 50 | D (D represents Kd (JAK3): Kd(RCK)<1) | < 50 | < 50 | D (D represents Kd(JAK2): Kd (RCK)<1)
NC(=O)c1c(Nc2ccc(-c3cc[nH]n3)cc2)n[nH]c1NCc1ccc(O)cc1 [reference compound] | < 50 | C (C represents 1<Kd (JAK3): Kd (RCK)<10) | < 50 | < 50 | D (D represents Kd(JAK2): Kd (RCK)<1)
COc1ccc(Nc2n[nH]c(NCc3cc(C)c(O)c(C)c3)c2C(N)=O)cc1 [drawing 180, reference compound] | < 50 |  | < 50 | < 50 | 
CC(C)(C)c1ccc(Nc2n[nH]c(NCc3ccc(O)cc3)c2C(N)=O)cc1 [reference compound] | 50 to 100 | C (C represents 1<Kd (JAK3): Kd (RCK)<10) | < 50 | < 50 | D (D represents Kd(JAK2): Kd (RCK)<1)
C[C@@H]1CN(c2ccc(Nc3n[nH]c(NCc4ccc(O)cc4)c3C(N)=O)cc2Cl)C[C@H](C)O1 [reference compound] | < 50 | C (C represents 1<Kd (JAK3): Kd (RCK)<10) | < 50 | < 50 | D (D represents Kd(JAK2): Kd (RCK)<1)
COc1ccc(Nc2n[nH]c(NCc3cc(C)c(O)c(C)c3)c2C(N)=O)cc1 [Compound 20, 5-((4-hydroxy-3,5-dimethylbenzyl)amino)-3-((4-methoxyphenyl)amino)-1H-pyrazole-4-carboxamide] | > 1000 | B (B represents 10<Kd (JAK3): Kd (RCK)<100) | 100 to 1000 | > 1000 | C (C represents 1<Kd (JAK2): Kd (RCK)<10)
Cc1cc(Nc2n[nH]c(NCc3cc(C)c(O)c(C)c3)c2C(N)=O)cnc1N1CCOCC1 [Compound 12, 5-((4-hydroxy-3,5-dimethylbenzyl)amino)-3-((5-methyl-6-morpholinopyridin-3-yl)amino)-1H-pyrazole-4-carboxamide] | > 1000 | B (B represents 10<Kd (JAK3): Kd (RCK)<100) | 100 to 1000 | > 1000 | B (B represents 10<Kd(JAK2): Kd (RCK)<100)
Cc1cc(CNc2[nH]nc(Nc3ccc(CC#N)cc3)c2C(N)=O)cc(C)c1O [Compound 61, 3-((4-(cyanomethyl)phenyl)amino)-5-((4-hydroxy-3,5-dimethylbenzyl)amino)-1H-pyrazole-4-carboxamide] | > 1000 | C (C represents 1<Kd (JAK3): Kd (RCK)<10) | > 1000 | > 1000 | C (C represents 1<Kd (JAK2): Kd (RCK)<10)
NC(=O)c1c(Nc2ccc(N3CCOCC3)c(Cl)c2)n[nH]c1NCc1ccc(O)cc1 [reference compound] | < 50 | C (C represents 1<Kd (JAK3): Kd (RCK)<10) | < 50 | < 50 | D (D represents Kd(JAK2): Kd (RCK)<1)
NC(=O)c1c(Nc2ccc(NC(=O)c3ccc(F)cc3)cc2)n[nH]c1NCc1ccc(O)cc1 [reference compound] | < 50 | C (C represents 1<Kd (JAK3): Kd (RCK)<10) | < 50 | < 50 | C (C represents 1<Kd (JAK2): Kd (RCK)<10)
COc1ccc(C(=O)Nc2ccc(Nc3n[nH]c(NCc4ccc(O)cc4)c3C(N)=O)cc2)cc1 [reference compound] | < 50 | B (B represents 10<Kd (JAK3): Kd (RCK)<100) | < 50 | < 50 | B (B represents 10<Kd(JAK2): Kd (RCK)<100)
Cc1cc(CNc2[nH]nc(Nc3ccc(N4CCN(C(=O)N5CCOCC5)CC4)cc3)c2C(N)=O)cc(C)c1O [Compound 39, 5-((4-hydroxy-3,5-dimethylbenzyl)amino)-3-((4-(4-(morpholine-4-carbonyl)piperazin-1-yl)phenyl)amino)-1H-pyrazole-4-carboxamide] | < 50 | B (B represents 10<Kd (JAK3): Kd (RCK)<100) | 50 to 100 | < 50 | B (B represents 10<Kd(JAK2): Kd (RCK)<100)
Cc1cc(Nc2n[nH]c(NCc3cc(C)c(O)c(C)c3)c2C(N)=O)ccc1N1CCOCC1 [Compound 8, 5-((4-hydroxy-3,5-dimethylbenzyl)amino)-3-((3-methyl-4-morpholinophenyl)amino)-1H-pyrazole-4-carboxamide] | > 1000 | B (B represents 10<Kd (JAK3): Kd (RCK)<100) | 50 to 100 | > 1000 | B (B represents 10<Kd(JAK2): Kd (RCK)<100)
CC(=O)Nc1cccc(Nc2n[nH]c(NCc3ccc(O)cc3)c2C(N)=O)c1 [reference compound] | < 50 | D (D represents Kd (JAK3): Kd(RCK)<1) | < 50 | < 50 | D (D represents Kd(JAK2): Kd (RCK)<1)
NC(=O)c1c(Nc2ccc(NC(=O)c3ccc(C(F)(F)F)cc3)cc2)n[nH]c1NCc1ccc(O)cc1 [reference compound] | 100 to 1000 | C (C represents 1<Kd (JAK3): Kd (RCK)<10) | 50 to 100 | 100 to 1000 | C (C represents 1<Kd (JAK2): Kd (RCK)<10)
Cc1cc(CNc2[nH]nc(Nc3cccc(Cl)c3)c2C(N)=O)cc(C)c1O [reference compound] | > 1000 | C (C represents 1<Kd (JAK3): Kd (RCK)<10) | > 1000 | > 1000 | C (C represents 1<Kd (JAK2): Kd (RCK)<10)
Cc1cc(CNc2[nH]nc(Nc3ccc(N4CCC(F)CC4)cc3)c2C(N)=O)cc(C)c1O [Compound 25, 3-((4-(4-fluoropiperidin-1-yl)phenyl)amino)-5-((4-hydroxy-3,5-dimethylbenzyl)amino)-1H-pyrazole-4-carboxamide] | > 1000 | B (B represents 10<Kd (JAK3): Kd (RCK)<100) | 100 to 1000 | > 1000 | C (C represents 1<Kd (JAK2): Kd (RCK)<10)
NC(=O)c1c(Nc2ccc(CN3CCCC3)cc2)n[nH]c1NCc1ccc(O)cc1 [reference compound] | < 50 | D (D represents Kd (JAK3): Kd(RCK)<1) | < 50 | < 50 | D (D represents Kd(JAK2): Kd (RCK)<1)
Cc1cc(CNc2[nH]nc(Nc3cccc(C#N)c3)c2C(N)=O)cc(C)c1O [Compound 43, 3-((3-cyanophenyl)amino)-5-((4-hydroxy-3,5-dimethylbenzyl)amino)-1H-pyrazole-4-carboxamide] | > 1000 | C (C represents 1<Kd (JAK3): Kd (RCK)<10) | > 1000 | > 1000 | D (D represents Kd(JAK2): Kd (RCK)<1)
NC(=O)c1c(Nc2ccc(N3CCOCC3)nc2)n[nH]c1NCc1ccc(O)cc1 [reference compound] | < 50 | C (C represents 1<Kd (JAK3): Kd (RCK)<10) | < 50 | < 50 | D (D represents Kd(JAK2): Kd (RCK)<1)
